One compound from patent US20250108048A1, “STING AGONIST COMPOUNDS AND CONJUGATES” (SUTRO BIOPHARMA, INC., priority 2023, published 2025) can be followed below.

Where two headings read alike, the source gives them in different places. A value given as a limit tells only on which side of the number the result lay.

For one assay, the target named is T1, hSTING-R232 (Homo sapiens, UniProt Q86WV6, H232R).
T1 construct: host or cells: THP1-Dual KI-hSTING-R232 (from THP1-Dual KO-STING)
Kind of assay: THP1-Dual KI-hSTING-R232 reporter assay (IRF pathway, secreted Lucia luciferase). It counts as cell-based. The following applies: THP1-Dual KI-hSTING-R232 cells, 24 hours; read-out: Reporter assay EC50 (nM) THP-1-R232. On the technique in general: A reporter such as luciferase makes a cellular process visible.

The next assay addresses hSTING WT (Homo sapiens, UniProt Q86WV6). Kind of assay: Surface plasmon resonance, hSTING WT. In kind it is binding. The following applies: read-out: hSTING WT SPR (Kd). (In SPR one partner is held on a chip, and binding of the other changes the refractive index at the surface.)
Another assay addresses hSTING AQ (Homo sapiens, UniProt Q86WV6, G230A/H232R/R293Q). Kind of assay: Surface plasmon resonance, hSTING AQ. It counts as binding. The following applies: read-out: hSTING AQ SPR (Kd).
Assay [1] has as its system TROP2 positive NCI-H292 Cells. Briefly: Cytokine release from cancer cells (MSD). Particulars: 120 hours; for EC50: Homo sapiens. It counts as cell-based, human. Here is the method:
The cell supernatant was collected and IP-10 and IL-6 released in the cell culture medium was measured using Streptavidin single spot 96 well plates, compatible human antibody pairs, and calibrating solutions commercially available from MesoScale Discovery. Raw data generated by the Meso Scale Discovery (MSD®) SQ120 plate reader was imported into MSD Discovery Workbench software. Unknown sample values were interpolated from standard curves by the software and imported into Graphpad Prism. Each cytokine level was fitted with non-linear regression analysis, using log (agonist) vs. response, variable slope, 4-parameter fit equation in GraphPad Prism.

For another assay, the target named is T2, mSTING (Mus musculus, UniProt Q3TBT3).
T2 sequence (Q3TBT3 1-378): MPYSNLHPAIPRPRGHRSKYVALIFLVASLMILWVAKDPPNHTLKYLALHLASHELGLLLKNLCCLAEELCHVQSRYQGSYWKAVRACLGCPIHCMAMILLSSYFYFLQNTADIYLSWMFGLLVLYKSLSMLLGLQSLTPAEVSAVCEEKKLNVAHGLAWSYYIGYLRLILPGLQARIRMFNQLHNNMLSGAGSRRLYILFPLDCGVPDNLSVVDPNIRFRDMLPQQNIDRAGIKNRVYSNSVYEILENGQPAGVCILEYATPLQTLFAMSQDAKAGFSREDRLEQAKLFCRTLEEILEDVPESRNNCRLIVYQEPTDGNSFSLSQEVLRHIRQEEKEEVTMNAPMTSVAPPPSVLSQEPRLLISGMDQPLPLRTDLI
Kind of assay: THP1-Dual KI-mSTING reporter assay. It counts as cell-based. Details: host or cells: THP1-Dual KI-mSTING (from THP1-Dual KO-STING). Particulars: THP1-Dual KI-mSTING cells, 24 hours; read-out: Reporter assay EC50 (nM) THP-1 mSTING.

A further assay has as its target hSTING H232 (Homo sapiens, UniProt Q86WV6). Kind of assay: THP1-Dual KI-hSTING-H232 reporter assay (IRF pathway, secreted Lucia luciferase). In kind it is cell-based. Details: host or cells: THP1-Dual KI-hSTING-H232 (from THP1-Dual KO-STING). The following applies: THP1-Dual KI-hSTING-H232 cells, 24 hours; read-out: Reporter assay EC50 (nM) THP-1-H232.

T1 sequence (Q86WV6 whole entry H232R): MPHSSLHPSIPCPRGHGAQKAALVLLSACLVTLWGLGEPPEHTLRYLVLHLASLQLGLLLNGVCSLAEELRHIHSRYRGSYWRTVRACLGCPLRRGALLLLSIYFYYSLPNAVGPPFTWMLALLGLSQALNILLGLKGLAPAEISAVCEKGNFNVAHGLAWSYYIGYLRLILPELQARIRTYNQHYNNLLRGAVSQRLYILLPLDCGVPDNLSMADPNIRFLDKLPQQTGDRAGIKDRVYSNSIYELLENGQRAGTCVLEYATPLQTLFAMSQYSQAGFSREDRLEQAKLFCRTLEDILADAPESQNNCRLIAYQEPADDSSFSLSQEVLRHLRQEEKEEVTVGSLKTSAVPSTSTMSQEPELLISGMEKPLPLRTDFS
Sequence of hSTING WT (Q86WV6 whole entry H232R): as above
Sequence of hSTING H232 (Q86WV6 whole entry): as the sequence (Q86WV6 whole entry H232R) above, with R232H counted along it
Sequence of hSTING AQ (Q86WV6 whole entry G230A/H232R/R293Q): as the sequence (Q86WV6 whole entry H232R) above, with G230A, R293Q counted along it

Consider `CCn1nc(C)cc1C(=O)Nc1nc2cc(C(N)=O)cc(OC)c2n1C/C=C/Cn1c(NC(=O)c2cc(C)nn2CC)nc2cc(C(N)=O)cc(OCCCN3CCC(c4nnc5n4CCNC5)CC3)c21` [Compound 4, 1-[(E)-4-[5-carbamoyl-2-[(2-ethyl-5-methyl-pyrazole-3-carbonyl)amino]-7-[3-[4-(5,6,7,8-tetrahydro-[1,2,4]triazolo[4,3-a]pyrazin-3-yl)-1-piperidyl]propoxy]benzimidazol-1-yl]but-2-enyl]-2-[(2-ethyl-5-methyl-pyrazole-3-carbonyl)amino]-7-methoxy-benzimidazole-5-carboxamide; 2,2,2-trifluoroacetic acid], for which the EC50 is 50 to 150 nM at hSTING-R232; over 100 nM in assay [1] (read-out: IL-6 Release EC50); over 100 nM in assay [1] (read-out: IP-10 Release EC50); over 150 nM on mSTING; over 150 nM at hSTING H232. Also, the Kd at hSTING WT and at hSTING AQ was at most 20 nM each time. Besides, in assay [1], the “IL-6 Release Span” value is reported as over 8000 pg/mL. For the same compound, the “IP-10 Release Span” value in assay [1] is over 4000 pg/mL.

The EC50 is the concentration giving half of the maximal effect. A word on the Kd: it is a measure of binding affinity in units of concentration.
